The source made the active and inactive calls. No cut-off for these calls is given here.
What was measured:
[1] = Displacement of fluorescent N-AB-PT from tubulin by spectrofluorimetry
A2780 [2] = assay: Cytotoxicity against human A2780 cells after 4 days by sulforhodamine B assay; type: functional, cell-based; conditions: A2780, 96 h
[3] = Inhibition of tubulin assembly
P388 = assay: Ratio of docetaxel to compound in cytotoxic activity against mouse P388 cells; type: functional
PC-3 [4] = assay: Cytotoxicity against human PC3 cells after 4 days by sulforhodamine B assay; type: functional, cell-based; conditions: PC-3, 96 h
[5] = Ratio of compound ED50 to paclitaxel ED50 for inhibition of tubulin assembly
PC-3 [6] = assay: Ratio of compound IC50 to paclitaxel IC50 for cytotoxic activity against human PC3 cells; type: functional
[7] = Ratio of paclitaxel Kd to compound Kd for displacement of fluorescent N-AB-PT from tubulin
[8] = Effect on tubulin polymerization at 50 uM by cold-induced disassembly assay
A2780 [9] = assay: Ratio of compound IC50 to paclitaxel IC50 for cytotoxic activity against human A2780 cells; type: functional

Ka [1]	ED50 [3]	Ratio ED50 [5]	Ratio [7]	Activity [8]	SMILES	IC50 (A2780 [2])	Ratio (P388)	IC50 (PC-3 [4])	Ratio IC50 (PC-3 [6])	Ratio IC50 (A2780 [9])
1.11e+07 M⁻¹	430 nM	–	–	–	COC(=O)N[C@@H](c1ccccc1)[C@@H](O)C(=O)O[C@H]1C[C@@]2(O)[C@@H](OC(=O)c3ccccc3)[C@@H]3[C@]4(OC(C)=O)CO[C@@H]4C[C@H](O)[C@@]3(C)C(=O)[C@H](OC(C)=O)C(=C1C)C2(C)C	9 nM	150	2 nM	–	–
–	–	5.1	–	–	CC(=O)O[C@H]1C(=O)[C@@]2(C)[C@H]([C@H](OC(=O)c3ccccc3)[C@@]3(O)C[C@@H](OC(=O)[C@@H](O)[C@@H](NC(=O)c4ccccc4)c4ccccc4C)C(C)=C1C3(C)C)[C@@]1(OC(C)=O)CO[C@@H]1C[C@@H]2O (stereo in doubt)	–	–	–	–	–
–	> 25000 nM	50	150	inactive	CC(=O)O[C@H]1C(=O)[C@@]2(C)[C@H]([C@H](OC(=O)c3ccccc3)[C@]3(O)C[C@H](OC(=O)[C@H](O)[C@H]4NC(=O)Oc5ccccc54)C(C)=C1C3(C)C)[C@]1(OC(C)=O)CO[C@@H]1C[C@@H]2O	> 20000 nM	–	> 5000 nM	1900	1900
4.76e+07 M⁻¹	480 nM	–	–	–	CC(=O)O[C@H]1C(=O)[C@@]2(C)[C@H]([C@H](OC(=O)c3ccccc3)[C@]3(O)C[C@H](OC(=O)[C@H](O)[C@@H](NC(=O)c4ccccc4)c4ccccc4)C(C)=C1C3(C)C)[C@]1(OC(C)=O)CO[C@@H]1C[C@@H]2O [PACLITAXEL]	–	–	1.4 nM	–	–

— ChEMBL document CHEMBL1153590 (Bioorg Med Chem Lett, 2009)
